# Patent publication US20150307520A1, “NOVEL HETEROARYL AND HETEROCYCLE COMPOUNDS, COMPOSITIONS AND METHODS THEREOF” (HUTCHISON MEDIPHARMA LIMITED, priority 2012, published 2015)
# Key:
# p110β/p85α = p110β/p85α (Homo sapiens, UniProt P42338); experiment: Transcreener KINASE Assay, kinase inhibition of p110β/p85α; assay type: biochemical; conditions: for PI3Kβ IH % @ 1 uM: 1 uM test compound; for IC50: read-out: PI3Kβ IC50
# How it was run: (§1)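 Recombinant PI3K/p85α heterodimers were incubated with compound (2% DMSO final) for 80 min at room temperature in 50 mM HEPES, 100 mM NaCl, 1 mM EGTA, 0.03% CHAPS, 3 mM MgCl2, 1 mM DTT, with substrate added as a 30 uM PIP2/10 uM ATP mix. ADP was detected by competitive fluorescence polarization immunoassay.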
# p110δ/p85α = p110δ/p85α (Homo sapiens, UniProt O00329); experiment: Transcreener KINASE Assay, kinase inhibition of p110δ/p85α; assay type: biochemical; conditions: for PI3Kδ IH % @ 1 uM: 1 uM test compound; for IC50: read-out: PI3Kδ IC50
# How it was run: as §1
# p110γ = p110γ (Homo sapiens, UniProt P48736); experiment: Transcreener KINASE Assay, kinase inhibition of p110γ; assay type: biochemical; conditions: for PI3Kγ IH % @ 1 uM: 1 uM test compound; for IC50: read-out: PI3Kγ IC50
# How it was run: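 ADP-detecting fluorescence polarization immunoassay run as two-step endpoint: kinase reaction for 80 min, detection for 60 min, both at room temperature. Enzymes are recombinant p110 isoforms with p85α, except p110γ. IC50s derived from fitted inhibition curves.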
# PI3Kγ = PI3Kγ (Mus musculus, UniProt Q9JHG7); experiment: Acumen Assay - Raw264.7 p-AKT Assay (C5a stimulated); assay type: cell-based; conditions: Raw264.7 macrophage cells, compound 30 min, stimulated with 10 nM C5a for 5 min, p-AKT (Ser473) readout; read-out: PI3Kγ cell-C5a Raw264.7 IC50
# Method: Acumen Assay—Raw264.7 p-AKT Assay
# Acumen® eX3 (A Multilaser Microplate Cytometer For Enhanced High Content Screening): TTP LabTech
# 3×10^4 Raw264.7 macrophage cells were seeded into 96-well plates with DMEM+10% heat-inactivated FBS at […], 90 ul/well, overnight. After starvation for 3 hr at 37° C. under 5% CO2, Raw264.7 cells were treated with 10 ul/well various concentrations of compound or 0.5% DMSO for 30 min, and then stimulated with 10 ul/well 10 nM C5a for 5 min.
# 1.) Cells were fixed 110 μL of 4% pre-warmed Paraformaldehyde (2% final), incubate for 45 min at room temperature. 2.) Remove paraformaldehyde solution. Add 100 μL of ice-cold 0.1% Triton X-100 in PBS and leave at 4° C. for 30 min. 3.) Wash once in 100 μL PBS. 4.) Incubate with 100 μL blocking buffer (1% BSA, in PBS) for 2 hours at room temperature. 5.) Wash once for 5 min with 100 ul PBS. 6.) Incubate with 40 μL 1:200 dilution of phospho AKT (Ser473) rabbit antibody in antibody dilution buffer (0.1% BSA, in PBS) overnight at 4° C. 7.) Wash for 3 times for 10 min with 100 ul PBS. 8.) Incubate for 90 min at room temperature with 50 μL of goat anti-rabbit Alex488 antibody at a 1:1,000 dilution in antibody dilution buffer (0.1% BSA, in PBS). Cover plate in foil to keep out of light. 9.) Wash for 3 times for 10 min with 100 μL PBS. 10.) Add 50 μL of 1.5 μM Propidium Iodide solution to each well to determine cell number at a 1:1,000 dilution in PBS (stock: 1.5 mM). 11.) Incubate at room temperature for 30 min. 12.) Seal the plate with a black cover-seal (supplied with plate). 13.) Load the plate into the Acumen Explorer and scan with the appropriate instrument settings.
# p110α/p85α = p110α/p85α (Homo sapiens, UniProt P42336); experiment: Transcreener KINASE Assay, kinase inhibition of p110α/p85α; assay type: biochemical; conditions: 1 uM test compound
# Method: PI3K kinases including p110α/p85α, p110δ/p85α and p110γ are purchased from Invitrogen, and p110β/p85α is from Millipore.
# Primary screening data and IC50 values are measured using Transcreener™ KINASE Assay (Bellbrook, Catalog #3003-10K). […] It is a universal, homogenous, high throughput screening (HTS) technology using a far-red, competitive fluorescence polarization immunoassay based on the detection of ADP to monitor the activity of enzymes that catalyze group transfer reactions. Briefly, the Transcreener KINASE Assay is designed as a simple two-part, endpoint assay.
# In the first step, the 25 ul kinase reaction is performed by preparing a reaction mixture containing 5 ul test compound (2% DMSO final concentration), 10 ul kinase, buffer (50 mM HEPES, 100 mM NaCl, 1 mM EGTA, 0.03% CHAPS, 3 mM MgCl2, and freshly supplemented 1 mM DTT), and 10 ul 30 uM PIP2/10 uM ATP. The plate is sealed and incubated for 80 min at room temperature. Next, 25 ul ADP detection mix is added per well. The plate is sealed again and incubated for 60 min at room temperature, and then measure fluorescence polarization by Tecan Infinite F500 Reader.
# Data is analyzed and IC50s are generated using the add-in software for Microsoft Excel, Xlfit™ (version 2.0). IH %=(ADP amount under 2% DMSO-ADP amount under test compound)/ADP amount under 2% DMSO.
# Chain of p110γ (P48736 whole entry, canonical isoform): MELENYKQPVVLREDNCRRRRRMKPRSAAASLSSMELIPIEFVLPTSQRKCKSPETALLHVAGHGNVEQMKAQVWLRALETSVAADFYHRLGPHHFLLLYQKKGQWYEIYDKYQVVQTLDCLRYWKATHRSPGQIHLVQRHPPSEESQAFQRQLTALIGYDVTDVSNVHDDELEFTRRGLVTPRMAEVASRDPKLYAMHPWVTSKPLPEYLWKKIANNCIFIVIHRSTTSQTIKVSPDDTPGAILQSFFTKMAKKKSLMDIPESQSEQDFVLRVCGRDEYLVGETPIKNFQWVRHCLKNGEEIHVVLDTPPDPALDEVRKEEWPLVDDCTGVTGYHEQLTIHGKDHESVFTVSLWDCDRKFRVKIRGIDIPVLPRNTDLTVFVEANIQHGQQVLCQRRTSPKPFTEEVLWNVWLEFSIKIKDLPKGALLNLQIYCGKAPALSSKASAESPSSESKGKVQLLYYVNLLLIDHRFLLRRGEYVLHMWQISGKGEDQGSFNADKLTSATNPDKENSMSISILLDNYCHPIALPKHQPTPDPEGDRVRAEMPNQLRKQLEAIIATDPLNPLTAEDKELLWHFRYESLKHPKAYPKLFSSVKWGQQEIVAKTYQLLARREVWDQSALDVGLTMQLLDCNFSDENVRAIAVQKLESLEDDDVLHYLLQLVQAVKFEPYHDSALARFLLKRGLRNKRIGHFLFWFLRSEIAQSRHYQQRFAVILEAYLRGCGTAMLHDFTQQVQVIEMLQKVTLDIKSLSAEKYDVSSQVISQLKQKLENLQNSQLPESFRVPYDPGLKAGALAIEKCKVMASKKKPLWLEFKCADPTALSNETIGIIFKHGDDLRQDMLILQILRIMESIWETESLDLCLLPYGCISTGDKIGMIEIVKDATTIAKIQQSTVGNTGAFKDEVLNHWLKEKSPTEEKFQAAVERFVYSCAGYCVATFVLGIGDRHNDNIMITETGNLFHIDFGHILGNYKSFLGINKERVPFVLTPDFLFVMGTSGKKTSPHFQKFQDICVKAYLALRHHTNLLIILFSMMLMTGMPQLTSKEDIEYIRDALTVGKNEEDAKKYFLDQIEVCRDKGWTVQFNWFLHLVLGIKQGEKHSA
# Chain of PI3Kγ (Q9JHG7 whole entry): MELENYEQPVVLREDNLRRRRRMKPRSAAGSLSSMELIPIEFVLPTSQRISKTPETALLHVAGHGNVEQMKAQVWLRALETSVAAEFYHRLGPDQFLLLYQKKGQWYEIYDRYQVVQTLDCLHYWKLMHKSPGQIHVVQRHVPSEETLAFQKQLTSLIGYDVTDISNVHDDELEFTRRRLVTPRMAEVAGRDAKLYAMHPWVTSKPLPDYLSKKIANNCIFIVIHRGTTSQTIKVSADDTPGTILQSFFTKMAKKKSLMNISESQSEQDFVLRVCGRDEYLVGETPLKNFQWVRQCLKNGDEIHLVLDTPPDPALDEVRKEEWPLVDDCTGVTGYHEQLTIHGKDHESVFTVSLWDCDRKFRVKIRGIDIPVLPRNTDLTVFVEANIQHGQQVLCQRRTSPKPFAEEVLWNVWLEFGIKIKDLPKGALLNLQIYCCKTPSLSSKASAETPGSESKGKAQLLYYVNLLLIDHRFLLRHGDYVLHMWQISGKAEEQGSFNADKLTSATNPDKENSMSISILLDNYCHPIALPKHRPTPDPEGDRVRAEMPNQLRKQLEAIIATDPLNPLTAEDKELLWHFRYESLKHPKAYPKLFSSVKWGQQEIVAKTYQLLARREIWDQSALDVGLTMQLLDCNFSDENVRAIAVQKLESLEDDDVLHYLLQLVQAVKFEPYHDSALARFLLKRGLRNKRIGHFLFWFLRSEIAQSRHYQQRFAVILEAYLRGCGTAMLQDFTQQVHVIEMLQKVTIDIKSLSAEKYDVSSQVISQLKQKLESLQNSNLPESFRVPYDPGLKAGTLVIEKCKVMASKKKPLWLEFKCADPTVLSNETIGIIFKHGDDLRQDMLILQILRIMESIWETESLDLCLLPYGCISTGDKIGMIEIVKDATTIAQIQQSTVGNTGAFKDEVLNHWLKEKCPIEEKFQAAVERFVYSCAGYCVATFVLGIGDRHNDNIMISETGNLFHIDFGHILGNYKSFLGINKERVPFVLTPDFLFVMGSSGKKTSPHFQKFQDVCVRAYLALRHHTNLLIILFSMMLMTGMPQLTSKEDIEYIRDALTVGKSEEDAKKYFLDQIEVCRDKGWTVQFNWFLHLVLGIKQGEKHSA
# Chain of p110α/p85α (P42336 whole entry): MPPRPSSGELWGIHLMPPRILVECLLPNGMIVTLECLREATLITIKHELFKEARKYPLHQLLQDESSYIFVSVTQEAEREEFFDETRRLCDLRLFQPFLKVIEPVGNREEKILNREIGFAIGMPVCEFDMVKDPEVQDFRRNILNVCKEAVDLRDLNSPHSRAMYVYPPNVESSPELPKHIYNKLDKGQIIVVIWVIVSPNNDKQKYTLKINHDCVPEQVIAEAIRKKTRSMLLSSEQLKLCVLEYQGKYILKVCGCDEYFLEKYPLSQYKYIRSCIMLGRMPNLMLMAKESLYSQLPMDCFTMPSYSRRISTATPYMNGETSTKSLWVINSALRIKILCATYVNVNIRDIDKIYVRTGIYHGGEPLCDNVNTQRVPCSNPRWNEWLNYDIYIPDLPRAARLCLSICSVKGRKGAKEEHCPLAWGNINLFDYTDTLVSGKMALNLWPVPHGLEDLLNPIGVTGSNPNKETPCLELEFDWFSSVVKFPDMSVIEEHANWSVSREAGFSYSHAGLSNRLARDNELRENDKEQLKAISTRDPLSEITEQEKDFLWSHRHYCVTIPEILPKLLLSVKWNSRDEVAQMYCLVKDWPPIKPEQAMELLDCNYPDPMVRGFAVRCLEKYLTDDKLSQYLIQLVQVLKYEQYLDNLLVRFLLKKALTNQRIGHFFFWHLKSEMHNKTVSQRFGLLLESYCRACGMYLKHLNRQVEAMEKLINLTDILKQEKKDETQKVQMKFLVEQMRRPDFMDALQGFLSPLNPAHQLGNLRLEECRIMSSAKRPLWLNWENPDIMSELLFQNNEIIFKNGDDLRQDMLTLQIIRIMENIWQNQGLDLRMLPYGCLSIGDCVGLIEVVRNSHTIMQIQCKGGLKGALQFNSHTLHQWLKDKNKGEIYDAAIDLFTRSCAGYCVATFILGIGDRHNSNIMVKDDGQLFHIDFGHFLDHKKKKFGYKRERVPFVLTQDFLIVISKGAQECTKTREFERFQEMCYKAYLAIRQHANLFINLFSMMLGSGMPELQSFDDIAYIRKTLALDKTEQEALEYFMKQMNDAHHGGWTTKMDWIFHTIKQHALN
# Chain of p110α/p85α (P27986 whole entry partner): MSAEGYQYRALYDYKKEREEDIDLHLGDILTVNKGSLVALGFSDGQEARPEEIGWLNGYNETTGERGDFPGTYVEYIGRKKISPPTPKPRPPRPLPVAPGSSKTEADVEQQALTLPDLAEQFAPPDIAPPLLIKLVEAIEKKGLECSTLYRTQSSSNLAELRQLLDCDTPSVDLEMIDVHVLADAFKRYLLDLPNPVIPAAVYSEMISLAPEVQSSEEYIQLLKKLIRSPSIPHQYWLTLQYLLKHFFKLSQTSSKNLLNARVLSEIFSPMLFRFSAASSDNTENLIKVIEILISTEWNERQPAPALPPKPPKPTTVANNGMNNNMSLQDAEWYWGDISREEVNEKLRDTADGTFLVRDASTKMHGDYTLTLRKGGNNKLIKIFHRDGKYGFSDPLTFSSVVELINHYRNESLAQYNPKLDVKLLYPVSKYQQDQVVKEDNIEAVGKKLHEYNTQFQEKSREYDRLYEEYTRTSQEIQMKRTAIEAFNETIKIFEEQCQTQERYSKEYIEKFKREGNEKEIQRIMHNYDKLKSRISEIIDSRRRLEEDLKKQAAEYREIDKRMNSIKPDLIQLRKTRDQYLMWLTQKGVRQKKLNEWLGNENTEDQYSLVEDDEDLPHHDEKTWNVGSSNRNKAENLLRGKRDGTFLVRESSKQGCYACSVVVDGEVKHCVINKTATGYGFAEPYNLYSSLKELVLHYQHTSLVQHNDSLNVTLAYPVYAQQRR
# Chain of p110δ/p85α (O00329 whole entry): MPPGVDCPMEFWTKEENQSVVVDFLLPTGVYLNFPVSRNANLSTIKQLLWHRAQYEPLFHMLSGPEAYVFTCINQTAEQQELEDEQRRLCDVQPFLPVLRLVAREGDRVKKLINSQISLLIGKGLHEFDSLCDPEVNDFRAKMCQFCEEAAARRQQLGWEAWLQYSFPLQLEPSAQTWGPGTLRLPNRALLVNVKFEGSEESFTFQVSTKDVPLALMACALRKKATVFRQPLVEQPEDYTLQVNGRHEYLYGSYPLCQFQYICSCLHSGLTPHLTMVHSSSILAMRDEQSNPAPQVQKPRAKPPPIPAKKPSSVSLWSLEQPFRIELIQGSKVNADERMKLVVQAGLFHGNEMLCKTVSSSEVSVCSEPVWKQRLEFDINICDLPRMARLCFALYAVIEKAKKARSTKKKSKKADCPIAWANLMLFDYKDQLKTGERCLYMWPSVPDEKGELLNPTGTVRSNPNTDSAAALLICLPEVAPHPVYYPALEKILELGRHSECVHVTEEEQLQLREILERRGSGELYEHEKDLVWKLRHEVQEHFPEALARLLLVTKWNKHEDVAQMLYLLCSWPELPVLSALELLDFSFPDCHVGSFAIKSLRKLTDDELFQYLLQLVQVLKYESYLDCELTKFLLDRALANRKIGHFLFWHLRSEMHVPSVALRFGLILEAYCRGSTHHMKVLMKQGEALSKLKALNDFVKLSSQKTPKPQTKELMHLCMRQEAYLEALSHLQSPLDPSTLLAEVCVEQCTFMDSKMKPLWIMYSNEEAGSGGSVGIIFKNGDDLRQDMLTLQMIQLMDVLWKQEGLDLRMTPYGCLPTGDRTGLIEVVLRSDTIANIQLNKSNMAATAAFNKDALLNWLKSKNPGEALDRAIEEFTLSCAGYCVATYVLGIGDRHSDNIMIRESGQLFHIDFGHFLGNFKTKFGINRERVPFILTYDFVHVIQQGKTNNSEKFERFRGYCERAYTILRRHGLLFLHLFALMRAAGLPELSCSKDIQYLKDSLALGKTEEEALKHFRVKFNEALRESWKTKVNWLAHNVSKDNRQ
# Chain of p110δ/p85α (P27986 whole entry partner): as the sequence (P27986 whole entry partner) above
Compound,PI3Kβ IH % @ 1 uM (p110β/p85α) [%],IC50 (p110β/p85α) [nM],PI3Kδ IH % @ 1 uM (p110δ/p85α) [%],IC50 (p110δ/p85α) [nM],PI3Kγ IH % @ 1 uM (p110γ) [%],IC50 (p110γ) [nM],IC50 (PI3Kγ) [nM],PI3Kα IH % @ 1 uM (p110α/p85α) [%]
CC(=O)c1cnc(N)nc1N1C[C@H](C)[C@H]1c1nn2ccc(Cl)c2c(=O)n1-c1ccccc1 [Compound 301],79.3,223,>100,4,>100,13,20,–
C[C@H]1CN(c2ncnc3[nH]cc(C#N)c23)C1c1nn2ccc(Cl)c2c(=O)n1-c1ccccc1 (stereo partly drawn) [Compound 235],69.3,211,>100,4,96.2,12,71,–
CC(=O)c1c[nH]c2ncnc(N3C[C@@H](F)C[C@H]3c3nn4ccc(Cl)c4c(=O)n3-c3ccccc3)c12 [Compound 268],80.3,170,>100,3,>100,–,–,38.4
N#Cc1c[nH]c2ncnc(N3CC[C@H]3c3nn4ccc(Cl)c4c(=O)n3-c3ccccc3)c12 [Compound 28],49.9,–,>100,14,92.2,32,–,−0.3
N#Cc1c(N)ncnc1N1CC[C@H]1c1nn2ccc(Cl)c2c(=O)n1-c1ccccc1 [Compound 31],35.3,–,>100,16,81.5,153,–,−17.7
"CCC(Nc1ncnc2[nH]cnc12)c1cn2ccc(Cl)c2c(=O)n1-c1cccc(F)c1 (stereo not drawn) [Compound 85, 3-(1-(9H-purin-6-ylamino)propyl)-8-chloro-2-(3-fluorophenyl)pyrrolo[1,2-a]pyrazin-1(2H)-one]",74.7,311,>100,1,87.8,30,–,27.4
O=c1c2c(Cl)ccn2nc([C@@H]2CCCN2c2ncnc3[nH]cnc23)n1-c1ccccc1 [Compound 26],88.7,91,>100,2,93.3,–,–,20.3
N#Cc1c[nH]c2ncnc(N3CCC[C@H]3c3nn4ccc(Cl)c4c(=O)n3Cc3cccnc3)c12 [Compound 66],63.6,–,>100,12,>100,14,–,75.6
"N#Cc1c[nH]c2ncnc(N3C[C@H](O)C[C@H]3c3nn4ccc(Cl)c4c(=O)n3-c3ccccc3)c12 [Compound 70, 4-((2S,4R)-2-(5-chloro-4-oxo-3-phenyl-3,4-dihydropyrrolo[2,1-f][1,2,4]triazin-2-yl)-4-hydroxypyrrolidin-1-yl)-7H-pyrrolo[2,3-d]pyrimidine-5-carbonitrile]",92.1,220,99.1,3,>100,25,–,41.6
Cc1ccn2nc([C@@H]3CCCN3c3nc(N)nc4[nH]cnc34)n(-c3ccccc3)c(=O)c12 [Compound 44],74.3,302,>100,1,95.2,5,–,46.7
"C[S@+]([O-])c1c[nH]c2ncnc(N3CCC[C@H]3c3nn4ccc(Cl)c4c(=O)n3-c3ccccc3)c12 [Compound 382, 5-chloro-2-((S)-1-(5-((S)-methylsulfinyl)-7H-pyrrolo[2,3-d]pyrimidin-4-yl)pyrrolidin-2-yl)-3-phenylpyrrolo[2,1-f][1,2,4]triazin-4(3H)-one]",84.4,88,99.0,1,>100,33,–,14.1

# Results, then the compound that gave them:
PI3Kβ IH % @ 1 uM (p110β/p85α) [%],IC50 (p110β/p85α) [nM],PI3Kδ IH % @ 1 uM (p110δ/p85α) [%],IC50 (p110δ/p85α) [nM],PI3Kγ IH % @ 1 uM (p110γ) [%],IC50 (p110γ) [nM],IC50 (PI3Kγ) [nM],PI3Kα IH % @ 1 uM (p110α/p85α) [%],Compound
77.1,374,89.7,1,94.3,5,39,–,CC(=O)c1cnc(N)nc1N1C[C@H](C)[C@H]1c1nn2ccc(Cl)c2c(=O)n1-c1cccc(F)c1 [Compound 467]
80.3,83,94.9,2,93.3,13,94,–,Cc1nc(N)nc(N2CCC2c2nn3ccc(Cl)c3c(=O)n2-c2ccccn2)c1C#N (stereo not drawn) [Compound 475]
18.3,–,34.2,–,17.2,–,2,–,Cc1cc(Cl)c2c(=O)n(-c3ccccc3)c([C@@H]3CCN3c3ncnc4[nH]cnc34)nn12 [Compound 496]
80.5,185,>100,1,>100,5,90,–,Cc1nc(N)nc(N2C[C@H](C)[C@H]2c2nn3ccc(F)c3c(=O)n2-c2cccc(F)c2)c1C#N [Compound 462]
85.9,88,>100,1,>100,7,–,65.2,N#Cc1c[nH]c2ncnc(N3C[C@@H](F)C[C@H]3c3nn4ccc(Cl)c4c(=O)n3-c3cccc(F)c3)c12 [Compound 213]
86.5,172,99.0,2,76.4,139,–,17.8,CCC(Nc1ncnc(N)c1C#N)c1cn2ccc(Cl)c2c(=O)n1-c1cccc(F)c1 (stereo not drawn) [Compound 86]
57.8,–,99.9,9,68.8,–,–,13.0,N#Cc1c(N)ncnc1N1CCC[C@H]1c1nn2ccc(Cl)c2c(=O)n1Cc1ccccn1 [Compound 69]
79.8,186,>100,–,91.2,5,–,71.8,Cc1ccn2nc([C@@H]3CCCN3c3ncnc4[nH]cc(C#N)c34)n(-c3ccccc3)c(=O)c12 [Compound 42]
65.2,–,>100,3,95.7,20,–,31.8,Cc1ccn2cc(C(C)Nc3ncnc4[nH]cnc34)n(-c3ccccc3)c(=O)c12 (stereo not drawn) [Compound 92]
54.8,–,–,3,93.5,–,–,−3.3,O=c1c2c(Cl)ccn2nc([C@@H]2CCCN2c2ncnc3[nH]cnc23)n1-c1cccc(F)c1 [Compound 38]
